pIC50: −log10 of the molar value.
What follows are molecules tested on KRAS G12V dependent lung adenocarcinoma cell line, NCI-H441 (assay: Cellular pERK (Thr202/Tyr204) FRET/HTRF assay). Details: Homo sapiens, NCI-H441, cellular pERK (Thr202/Tyr204) HTRF, NCI-H441 cells.
Assay type: cell-based
Summary of the method: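 Using a mix-and-read HTRF kit, phospho-ERK (Thr202/Tyr204) was detected in NCI-H441 lysates following 1 hr compound incubation at 37 °C, 5% CO2. Cells had been seeded overnight beforehand, and IC50 was derived by curve fitting.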
Molecule `[2H]C([2H])(F)Oc1c(F)ccc2cccc(-c3ncc4c(N5CCCC[C@H]6[C@H](F)[C@H]65)nc(OC[C@]56C/C(=C\F)CN5CCC65CC5)nc4c3F)c12` [Example 382, (R,E)-7a′-(((8-fluoro-7-(7-fluoro-8-(fluoromethoxy-d2)naphthalen-1-yl)-4-((1S,7R,8S)-8-fluoro-2-azabicyclo[5.1.0]octan-2-yl)pyrido[4,3-d]pyrimidin-2-yl)oxy)methyl)-6′-(fluoromethylene)hexahydrospiro [cyclopropane-1,1′-pyrrolizine]] has a pIC50 greater than 7.30. For `C=C1CN2CCC[C@@]2(COc2nc(N3CCCC[C@@H]4[C@@H](F)[C@@H]43)c3cnc(-c4cc(N)c(F)c(C)c4C(F)(F)F)c(F)c3n2)C1` [Example 393, 2-fluoro-5-(8-fluoro-4-((1R,7S,8R)-8-fluoro-2-azabicyclo[5.1.0]octan-2-yl)-2-(((S)-2-methylenetetrahydro-1H-pyrrolizin-7a(5H)-yl)methoxy)pyrido[4,3-d]pyrimidin-7-yl)-3-methyl-4-(trifluoromethyl)aniline], the pIC50 was 5.00 to 6.30. In the case of `[2H]C([2H])(Oc1nc(N2CC[C@@H](C#N)C[C@@H]3[C@@H](F)[C@@H]32)c2cnc(-c3cc(N)cc4ccc(F)c(C#C)c34)c(F)c2n1)[C@@]12CCCN1C[C@H](F)C2` [Example 305, (1R,5S,7S,8R)-2-(7-(3-amino-8-ethynyl-7-fluoronaphthalen-1-yl)-8-fluoro-2-(((2R,7aS)-2-fluorotetrahydro-1H-pyrrolizin-7a(5H)-yl)methoxy-d2)pyrido[4,3-d]pyrimidin-4-yl)-8-fluoro-2-azabicyclo[5.1.0]octane-5-carbonitrile], the pIC50 was 6.30 to 7.30. In the case of `Nc1cc(Cl)c(C(F)(F)F)c(-c2ncc3c(N4CCCC[C@H]5[C@H](F)[C@H]54)nc(OC[C@@]45CCCN4CC(=C(F)F)C5)nc3c2F)c1` [Example 369, 3-chloro-5-(2-(((S)-2-(difluoromethylene)tetrahydro-1H-pyrrolizin-7a(5H)-yl)methoxy)-8-fluoro-4-((1S,7R,8S)-8-fluoro-2-azabicyclo[5.1.0]octan-2-yl)pyrido[4,3-d]pyrimidin-7-yl)-4-(trifluoromethyl)aniline], the pIC50 was 6.30 to 7.30. `C#Cc1c(F)ccc2cc(N)cc(-c3ncc4c(N5CCOC[C@H]6[C@H](F)[C@H]65)nc(OC[C@@H]5CCCN5C)nc4c3F)c12` [Example 288, 5-ethynyl-6-fluoro-4-(8-fluoro-4-((1S,7S,8S)-8-fluoro-5-oxa-2-azabicyclo[5.1.0]octan-2-yl)-2-(((S)-1-methylpyrrolidin-2-yl)methoxy)pyrido[4,3-d]pyrimidin-7-yl)naphthalen-2-amine] was tested, and the pIC50 was greater than 7.30. Molecule `C#Cc1c(F)ccc2cccc(-c3ncc4c(N5CCOC[C@H]6[C@H](F)[C@H]65)nc(OC[C@]56C[C@@H](F)CN5C[C@@H](CN)C6)nc4c3F)c12` [Example 246, ((2R,6R,7aS)-7a-(((7-(8-ethynyl-7-fluoronaphthalen-1-yl)-8-fluoro-4-((1S,7S,8S)-8-fluoro-5-oxa-2-azabicyclo[5.1.0]octan-2-yl)pyrido[4,3-d]pyrimidin-2-yl)oxy)methyl)-6-fluorohexahydro-1H-pyrrolizin-2-yl)methanamine] has a pIC50 of 5.00 to 6.30. Molecule `C#Cc1c(F)ccc2cc(N)cc(-c3ncc4c(N5CCCC[C@H]6[C@H](F)[C@H]65)nc(OC[C@]56C/C(=C/F)CN5CCC65CC5)nc4c3F)c12` [Example 404, 5-Ethynyl-6-fluoro-4-(8-fluoro-4-((1S,7R,8S)-8-fluoro-2-azabicyclo[5.1.0]octan-2-yl)-2-(((R,Z)-6′-(fluoromethylene)tetrahydrospiro[cyclopropane-1,1′-pyrrolizin]-7a′(5′H)-yl)methoxy)pyrido[4,3-d]pyrimidin-7-yl)naphthalen-2-amine] has a pIC50 greater than 7.30. `[2H]C([2H])(Oc1nc(N2CCOC[C@H]3[C@H](F)[C@H]32)c2cnc(-c3cc(N)cc4ccc(F)c(C#C)c34)c(F)c2n1)[C@@]12CCCN1C[C@H](C#N)C2` [Example 276, (2R,7aS)-7a-(((7-(3-amino-8-ethynyl-7-fluoronaphthalen-1-yl)-8-fluoro-4-((1S,7S,8S)-8-fluoro-5-oxa-2-azabicyclo[5.1.0]octan-2-yl)pyrido[4,3-d]pyrimidin-2-yl)oxy)methyl-d2)hexahydro-1H-pyrrolizine-2-carbonitrile] showed a pIC50 greater than 7.30. With `[2H]C([2H])(Oc1nc(N2CCOC[C@H]3[C@H](F)[C@H]32)c2cnc(-c3cc(O)cc4ccc(C)c(C#C)c34)c(F)c2n1)[C@@]12CCCN1C[C@H](F)C2` [Example 324, 5-ethynyl-4-(8-fluoro-4-((1S,7S,8S)-8-fluoro-5-oxa-2-azabicyclo[5.1.0]octan-2-yl)-2-(((2R,7aS)-2-fluorotetrahydro-1H-pyrrolizin-7a(5H)-yl)methoxy-d2)pyrido[4,3-d]pyrimidin-7-yl)-6-methylnaphthalen-2-ol] the pIC50 was greater than 7.30. Work on `C#Cc1cccc2cc(N)cc(-c3ncc4c(N5CCOC[C@H]6[C@H](Cl)[C@H]65)nc(OC[C@@H]5CCCN5C)nc4c3F)c12` [Example 322, 4-(4-((1S,7S,8S)-8-chloro-5-oxa-2-azabicyclo[5.1.0]octan-2-yl)-8-fluoro-2-(((S)-1-methylpyrrolidin-2-yl)methoxy)pyrido[4,3-d]pyrimidin-7-yl)-5-ethynylnaphthalen-2-amine] yielded a pIC50 greater than 7.30. `Cc1c(F)c(N)cc(-c2ncc3c(N4CCCC[C@H]5[C@H](F)[C@H]54)nc(OC[C@@]45CCCN4CC(=C(F)F)C5)nc3c2F)c1C(F)(F)F` [Example 394, 5-(2-(((S)-2-(difluoromethylene)tetrahydro-1H-pyrrolizin-7a(5H)-yl)methoxy)-8-fluoro-4-((1S,7R,8S)-8-fluoro-2-azabicyclo[5.1.0]octan-2-yl)pyrido[4,3-d]pyrimidin-7-yl)-2-fluoro-3-methyl-4-(trifluoromethyl)aniline] showed a pIC50 of 5.00 to 6.30.

Same assay, conditions: Homo sapiens, NCI-H441, cellular pERK HTRF, NCI-H441 (KRAS G12V) cells
Work on `[2H]C([2H])(Oc1nc(N2CCCC[C@H]3[C@H](F)[C@H]32)c2cnc(-c3cc(O)cc4ccc(F)c(C#C)c34)c(C)c2n1)[C@@]12CCCN1CC(=C)C2` [Example 461, 5-Ethynyl-6-fluoro-4-(4-((1S,7R,8S)-8-fluoro-2-azabicyclo[5.1.0]octan-2-yl)-8-methyl-2-(((S)-2-methylenetetrahydro-1H-pyrrolizin-7a(5H)-yl)methoxy-d2)pyrido[4,3-d]pyrimidin-7-yl)naphthalen-2-ol] yielded a pIC50 greater than 7.30. For `[2H]C([2H])(Oc1nc(N2CCCC[C@@H]3[C@@H](Cl)[C@@H]32)c2cnc(-c3cc(N)cc4ccc(F)c(C#C)c34)c(C)c2n1)[C@@]12CCCN1C[C@H](F)C2` [Example 465, 4-(4-((1R,7S,8R)-8-chloro-2-azabicyclo[5.1.0]octan-2-yl)-2-(((2R,7aS)-2-fluorotetrahydro-1H-pyrrolizin-7a(5H)-yl)methoxy-d2)-8-methylpyrido[4,3-d]pyrimidin-7-yl)-5-ethynyl-6-fluoronaphthalen-2-amine], the pIC50 was 5.00 to 6.30.

Same assay, conditions: Homo sapiens, NCI-H441, pERK HTRF, NCI-H441 cells (KRAS G12V)
`[2H]C([2H])(Oc1nc(N2CCC[C@H]3[C@@H](F)[C@H]32)c2cnc(-c3cc(N)cc4cc(F)c(F)c(C#C)c34)c(F)c2n1)[C@@]12CCCN1C[C@H](F)C2` [Example 64, 5-Ethynyl-6,7-difluoro-4-(8-fluoro-4-((1S,6R,7R)-7-fluoro-2-azabicyclo[4.1.0]heptan-2-yl)-2-(((2R,7aS)-2-fluorotetrahydro-1H-pyrrolizin-7a(5H)-yl)methoxy-d2)pyrido[4,3-d]pyrimidin-7-yl)naphthalen-2-amine] gave a pIC50 of 5.00 to 6.30. For `[2H]C([2H])(Oc1nc(N2CCCO[C@H]3[C@H](F)[C@H]32)c2cnc(-c3cccc4ccc(F)c(C#C)c34)c(F)c2n1)[C@@]12CCCN1C[C@H](F)C2` [Example 75, (1R,7S,8R)-6-(7-(8-Ethynyl-7-fluoronaphthalen-1-yl)-8-fluoro-2-(((2R,7aS)-2-fluorotetrahydro-1H-pyrrolizin-7a(5H)-yl)methoxy-d2)pyrido[4,3-d]pyrimidin-4-yl)-8-fluoro-2-oxa-6-azabicyclo[5.1.0]octane], the pIC50 was greater than 7.30. With `[2H]C([2H])(Oc1nc(N2CCC[C@@H]3C[C@@H]32)c2cnc(-c3cc(N)cc4cc(F)c(F)c(C#C)c34)c(F)c2n1)[C@@]12CCCN1C[C@H](F)C2` [Example 51, 4-(4-((1S,6R)-2-Azabicyclo[4.1.0]heptan-2-yl)-8-fluoro-2-(((2R,7aS)-2-fluorotetrahydro-1H-pyrrolizin-7a(5H)-yl)methoxy-d2)pyrido[4,3-d]pyrimidin-7-yl)-5-ethynyl-6,7-difluoronaphthalen-2-amine] the pIC50 was 5.00 to 6.30.

Same assay, conditions: cellular pERK HTRF, NCI-H441 (KRAS G12V) cells
Molecule `[2H]C([2H])(Oc1nc(N2CCOC[C@H]3[C@H](F)[C@H]32)c2cc(F)c(-c3cc(N)cc4ccc(F)c(C#C)c34)c(C)c2n1)[C@@]12CCCN1C[C@H](F)C2` (atropisomer, axis not shown; (aS)) [Example 434, 5-Ethynyl-6-fluoro-4-((R)-6-fluoro-4-((1S,7S,8S)-8-fluoro-5-oxa-2-azabicyclo[5.1.0]octan-2-yl)-2-(((2R,7aS)-2-fluorotetrahydro-1H-pyrrolizin-7a(5H)-yl)methoxy-d2)-8-methylquinazolin-7-yl)naphthalen-2-amine] has a pIC50 of 5.00 to 6.30. For `[2H]C([2H])(Oc1nc(N2CCOC[C@H]3[C@H](F)[C@H]32)c2cc(C(F)(F)F)c(-c3cccc4sc(N)c(C#N)c34)c(F)c2n1)[C@@]12CCCN1C[C@H](F)C2` (atropisomer, axis not shown; (aS)) [Example 468, 2-amino-4-((R)-8-fluoro-4-((1S,7S,8S)-8-fluoro-5-oxa-2-azabicyclo[5.1.0]octan-2-yl)-2-(((2R,7aS)-2-fluorotetrahydro-1H-pyrrolizin-7a(5H)-yl)methoxy-d2)-6-(trifluoromethyl)quinazolin-7-yl)benzo[b]thiophene-3-carbonitrile], the pIC50 was greater than 7.30.

From patent US20250282799A1, “SUBSTITUTED PYRIDO[4,3-d]PYRIMIDINES AS KRAS MODULATORS” (Alterome Therapeutics, Inc., priority 2023, published 2025)
